The values below come from patent EP2324824A2, “Medical application of lipid derivatives of dopamine” (Instytut Medycyny Doswiadczalnej I Klinicznej, priority 2009, dated 2011).

The test system of data set [1] is anesthetized, paralyzed and artificially ventilated Wistar rats. Description: Respiratory response to hypoxia in the anesthetized rat (integrated phrenic nerve activity). In kind it is in vivo. The following applies: for peak respiratory response in relation to the starting-point values: substance alone: N-oleoyl-dopamine 20 mg/kg, haloperidol 3 mg/kg, domperidone 0.3 mg/kg; for effect on respiration in the second inhibitory phase of the response to hypoxia: substance alone, 14% and 11 % hypoxia. The method, then: The study was performed in anesthetized, paralyzed and artificially ventilated Wistar rats. During the experiments, the integrated activity of the phrenic nerve was recorded. This activity reflects the frequency and tidal volume; their product represents the index of minute lung ventilation. The experimental protocol consisted of control recordings for two levels of the hypoxic stimulus: 14% and 11 % O2 in N2. Afterwards, N-oleoyl-dopamine in a dose of 20 mg/kg was given and the recordings were repeated. Additionally, experiments with two dopamine receptor antagonists were performed: first, with the penetrating through the blood-brain barrier D2 dopamine receptor antagonist haloperidol and second, with the non-penetrating through the blood-brain-barrier domperidone. In these studies, after the control recordings, haloperidol (in a dose of 3 mg/kg) or domperidone (in a dose of 0.3 mg/kg) were administered and the recordings repeated. Then, N-oleoyl-dopamine was given and the recordings were repeated.

Data set [2] concerns brain. Particulars: after injection into the carotid artery; cited from earlier work.
Data set [3] deals with TRPV1 vanilloid receptors (Homo sapiens, UniProt Q8NER1). Particulars: mentioned in the literature; cited from earlier work.
Chain of TRPV1 vanilloid receptors (Q8NER1 whole entry): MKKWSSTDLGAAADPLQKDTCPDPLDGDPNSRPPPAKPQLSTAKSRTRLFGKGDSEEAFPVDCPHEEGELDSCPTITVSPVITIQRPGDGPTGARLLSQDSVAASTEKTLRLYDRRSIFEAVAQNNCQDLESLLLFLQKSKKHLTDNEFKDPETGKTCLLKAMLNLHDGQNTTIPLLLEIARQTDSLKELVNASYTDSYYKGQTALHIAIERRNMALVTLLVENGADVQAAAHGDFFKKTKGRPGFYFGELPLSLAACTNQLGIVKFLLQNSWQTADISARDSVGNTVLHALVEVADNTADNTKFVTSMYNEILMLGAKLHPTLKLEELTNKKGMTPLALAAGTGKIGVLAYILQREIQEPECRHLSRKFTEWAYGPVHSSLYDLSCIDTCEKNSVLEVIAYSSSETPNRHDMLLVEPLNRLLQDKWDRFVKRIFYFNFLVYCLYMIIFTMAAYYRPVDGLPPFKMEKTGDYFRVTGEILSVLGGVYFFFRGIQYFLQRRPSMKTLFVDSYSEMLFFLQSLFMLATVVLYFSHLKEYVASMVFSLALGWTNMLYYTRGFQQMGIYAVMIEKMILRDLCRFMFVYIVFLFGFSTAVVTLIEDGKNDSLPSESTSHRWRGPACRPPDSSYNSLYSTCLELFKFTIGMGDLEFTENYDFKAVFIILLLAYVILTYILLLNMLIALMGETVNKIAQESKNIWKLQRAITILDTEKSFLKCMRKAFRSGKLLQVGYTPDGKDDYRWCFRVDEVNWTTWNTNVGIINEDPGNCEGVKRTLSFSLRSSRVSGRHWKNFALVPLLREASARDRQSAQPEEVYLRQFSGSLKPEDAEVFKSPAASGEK
The subject of data set [4] is rat brain membrane system. It counts as in vivo, Wistar rats. The following applies: 20 mg/kg intraperitoneal. The method, then: N-oleoyl-dopamine was administered to Wistar rats at a dose of 20 mg/kg. After 1, 2, 3 or 24 hours the rat was sacrificed and the brain was resected. From the tissue, the whole lipid fraction, containing all lipids of the brain and the membrane fraction of the rat brain were obtained. Total lipids were obtained by homogenization of the brain in a mixture of chloroform and methanol 2:1 followed by an extraction of the water-soluble fractions and evaporation of the solvent. The membrane phase was obtained according to Xu et al. (Xu, 1998) and extracted with chloroform to obtain membrane lipids. All obtained samples were analyzed by the thin layer chromatography TLC on silica gel plates 60 using a mixture of chloroform and methanol 95:5 as the mobile phase and N-oleoyl-dopamine as the standard. The Retention Factor (Rf) for the N-oleoyl-dopamine standard was equal to 0.24-0.26. At the same level (the same Rf = […]) there were bands corresponding to N-oleoyl-dopamine in the biological samples, that is after systemic N-oleoyl-dopamine injection, but not in the control samples obtained with no N-oleoyl-dopamine injection.

The subject of data set [5] is awake Wistar rats. Description: Respiration in normoxia and hypoxia in the awake rat (plethysmographic chamber). In kind it is in vivo. The following applies: for Minute lung ventilation (peak respiratory response): after haloperidol 0.9 mg/kg i.p. and N-oleoyl-dopamine 40 mg/kg i.p. The method, then: The study was performed in awake Wistar rats in a computerized plethysmographic chamber for small rodents. Respiratory frequency, tidal volume and pulmonary ventilation were measured. The experimental protocol included recordings in normoxia (breathing with atmospheric air), two levels of hypoxic stimulus (8% and 12% O2 in N2), intraperitoneal (i.p.) administration of N-oleoyl-dopamine (in a dose of 40 mg/kg) and repeated recordings for both normoxic and hypoxic states. Additionally, further experiments with the dopamine receptor antagonist haloperidol (in a dose of 0.9 mg/kg, i.p.) were performed. In those experiments, haloperidol was administered prior to N-oleoyl-dopamine and the recordings according the above-mentioned protocol were repeated. […]

For data set [6] the following is noted: in vitro conditions; cited from earlier work.
For data set [7], the system named is rat model of Parkinson's disease. Particulars: cited from earlier work.
The subject of data set [8] is rat. Particulars: cited from earlier work.
Data set [9] concerns animal model of Parkinson's disease. In words: Muscle rigidity in reserpine + α-methyl-tyrosine model of Parkinson's disease (EMG). It counts as in vivo, rats. Particulars: 10 mg/kg. The method, then:
Symptoms of the Parkinson's disease, particularly muscle rigidity during flexion and extension movements in the ankle joint, were induced with reserpine (2.5 mg/kg, i.p.) and α-methyl-tyrosine (α-MT, 250 mg/kg, i.p.) administered at a 16-h interval. Afterwards, 3'-O-methyl-N-oleoyl-dopamine (O-Me-OLDA) was administered at a dose of 10 mg/kg and the muscular tone was measured using electromyographic (EMG) techniques. The control groups consisted of a) only vehiculum-treated animals in which no symptoms of Parkinson's disease were induced (control), b) animals who received only 3'-O-methyl-N-oleoyl-dopamine (O-Me-OLDA) and c) animals in which symptoms of Parkinson's disease were induced (reserpine + α-MT), but no other treatment was introduced.

Where [10] appears, read: 8% hypoxia, 40 mg/kg i.p., awake rat.
Setting [11] is: 8% hypoxia, after 40 mg/kg i.p., awake rat.
The mark [12] stands for this setting: normoxia, 40 mg/kg i.p., awake rat.
Where [13] appears, read: N-oleoyl-dopamine 20 mg/kg given after domperidone 0.3 mg/kg.
[14] abbreviates: N-oleoyl-dopamine 20 mg/kg given after haloperidol 3 mg/kg.

For the compound `O=c1[nH]c2ccccc2n1CCCN1CCC(n2c(=O)[nH]c3cc(Cl)ccc32)CC1` [domperidone, reference compound], the “peak respiratory response in relation to the starting-point values” (shortened to “peak respiratory response in relation”) in [1] (11 % hypoxia (O2 in N2)) stood at 26 ±5%; in [1] (14% hypoxia (O2 in N2)) it was 21 ±5%.
With `CCCCCCCC/C=C\CCCCCCCC(=O)NCCc1ccc(O)c(O)c1` [N-oleoyl-dopamine], the “penetration into the brain” value in data set [2] is listed as “ability to penetrate into the brain”. Besides, in data set [3], the “action towards TRPV1 vanilloid receptors” value is given as “agonistic action”. For the same compound, the “penetration into the membrane system of the brain” value in data set [4] (brain taken after 1, 2, 3 or 24 hours) is “penetrates into the membrane system of the rat brain”. In addition, the “time staying unchanged bound to the brain membrane system” value in data set [4] (rat brain) is “at least 24 hours”. Besides, the “reduction of peak respiratory response” value in data set [5] (setting [10]) came to 41%; in data set [5] (12% hypoxia, 40 mg/kg i.p., awake rat), 36%. The peak respiratory response came out at 1338.3 ±49.5 ml/min/kg body weight in data set [5] (setting [11]) and 856.6 ±73.7 ml/min/kg body weight in [5] (12% hypoxia, after 40 mg/kg i.p., awake rat). The “Minute lung ventilation (peak respiratory response)” value in data set [5] (8% hypoxia) amounted to 1947.3 ±66.5 ml/min/kg body weight; in data set [5] (12% hypoxia) it was 1484.0 ±92.3 ml/min/kg body weight. Also, the “decrease in respiratory frequency” value in [5] (setting [12]) was 23%. The “decrease of resting ventilation during breathing with atmospheric oxygen” value in data set [5] (setting [12]) came to 33%. For the same compound, the stability entry in [6] is reported as “highly stable”. In addition, the results for the “peak respiratory response in relation” value in data set [1] (11 % hypoxia (O2 in N2)) and in data set [1] (14% hypoxia (O2 in N2)) were 38 ±9% and 18 ±10%, respectively. Moreover, in data set [1] (setting [13]), the “effect on respiration in the inhibitory phase” value was “still diminished the respiration”. Besides, in data set [1] (setting [13]), the “effect on response to hypoxia in the stimulatory phase” value is listed as “did not change the response to hypoxia”. The “effect on respiratory response in the first stimulatory phase” value in data set [1] (setting [14]) is “did not restore the respiratory response”. Further, in data set [1] (setting [14]), the “effect on respiratory response in the second inhibitory phase” value is “still diminished it”. The “effect on respiration in the second inhibitory phase of the response to hypoxia” value in data set [1] is recorded as “reduced the respiratory response to hypoxia”. Moreover, in [7], the muscle rigidity result is on record as “diminishes muscle rigidity”. Besides, the locomotor activity result in data set [8] was “increases the locomotor activity”.
Turning to `CCCCCCCC/C=C\CCCCCCCC(=O)NCCc1ccc(O)c(OC)c1` [3'-O-methyl-N-oleoyl-dopamine], the “action towards TRPV1 vanilloid receptors” value in data set [3] was “agonistic action”. Moreover, the muscle rigidity entry in [9] (rats treated with reserpine 2.5 mg/kg i.p. + α-MT 250 mg/kg i.p.) was “abolished muscle rigidity”. Moreover, in data set [9] (substance alone, no Parkinson symptoms induced), the “muscle tone in comparison to control recordings” value is listed as “did not change the muscle tone”. Further, the “muscle tone (force needed for flexion and extension of the ankle joint)” value in data set [9] (three-fold elevated level of muscle tone by reserpine, Fig.1) is reported as “decreases nearly down to the control level”. Moreover, in data set [5] (setting [10]), the “reduction of peak respiratory response” value is reported as 19%. The compound further registered a peak respiratory response in data set [5] (setting [11]) of 1939 ±255 ml/min/kg body weight. The “decrease of resting ventilation during breathing with atmospheric oxygen” value in [5] (setting [12]) amounted to 23%. Besides, the “resting ventilation during breathing with atmospheric oxygen” value in data set [5] (normoxia, after 40 mg/kg i.p., awake rat) was 779.7 ±148.7 ml/min/kg body weight.
With `O=C(CCCN1CCC(O)(c2ccc(Cl)cc2)CC1)c1ccc(F)cc1` [haloperidol, reference compound], the “peak respiratory response in relation” value in data set [1] (11 % hypoxia (O2 in N2)) was found to be 22 ±5%; in data set [1] (14% hypoxia (O2 in N2)), 18 ±3%. For the same compound, the “effect on respiration in the second inhibitory phase of the response to hypoxia” value in data set [1] is reported as “diminished the respiration”.
